From patent US11827628B2, “Compositions and methods for inhibition of the JAK pathway” (Rigel Pharmaceuticals, Inc., priority 2005, dated 2023)
Where a name gives a salt, the structure may show the parent alone.

The compounds below were run on Primary human T-cells (assay: Primary Human T-Cell Proliferation Assay Stimulated with IL-2 (CellTiter-Glo)). Details: primary human T-cell proliferation stimulated with IL-2; Hydrochloride Salt; read-out: IC50, Example 42.
Format: cell-based
Outline: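 IC50 derived from CellTiter-Glo ATP signal after 72 hours of IL-2-driven proliferation at 37° C. Cells: primary human T-cells from blood, stimulated beforehand 3-4 days on anti-CD3/anti-CD28 with IL-2, then rested from IL-2 before compound exposure in duplicate; IL-2-free wells served as unstimulated control.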

| Compound | IC50 |
| --- | --- |
| NS(=O)(=O)c1cccc(Nc2ncc(F)c(Nc3ccc(OCc4ccccn4)cc3)n2)c1 [Compound I-196, N2-(3-Aminosulfonylphenyl)-5-fluoro-N4-4-[(2-pyridinyl)methyleneoxyphenyl]-2,4-pyrimidinediamine Hydrochloride Salt] | 139 nM |

Same assay, conditions: primary human T-cell proliferation stimulated with IL-2; read-out: IC50, Example 42

| Compound | IC50 |
| --- | --- |
| Cc1cc(Nc2nc(Nc3ccc(S(N)(=O)=O)cc3)ncc2F)cc(C)c1OC(C)C(N)=O (racemic) [Compound I-122, Racemic N4-[4-(1-Aminocarbonyl)ethoxy-3,5-dimethyl]phenyl-N2-(4-aminosulfonyl)phenyl-5-fluoro-2,4-pyrimidinediamine] | 3500 nM |
| N#CCOc1ccc(Nc2nc(Nc3cccc(S(N)(=O)=O)c3)ncc2Br)cc1 [Compound I-13, N2-(3-Aminosulfonylphenyl)-5-bromo-N4-(4-cyanomethyleneoxyphenyl)-2,4-pyrimidinediamine] | 5.05 nM |
| Cc1cc(COc2ccc(Nc3nc(Nc4ccc(C)c(S(N)(=O)=O)c4)ncc3F)cc2)n(C)n1 [Compound I-198, N2-(3-Aminosulfonyl-4-methylphenyl)-N4-[4-(1,3-dimethyl-(1H)-pyrazol-5-yl)methyleneoxyphenyl]-5-fluoro-2,4-pyrimidinediamine] | 460 nM |
| N#CCOc1ccc(Nc2nc(Nc3cccc(S(N)(=O)=O)c3)ncc2F)cc1F [Compound I-12, N2-(3-Aminosulfonylphenyl)-5-fluoro-N4-(4-cyanomethyleneoxy-3-fluorophenyl)-2,4-pyrimidinediamine] | 59.7 nM |
| N2-(3-Aminosulfonyl-4-methylphenyl)-5-fluoro-N4-[4-(2-pyridinyl)-3-fluoromethyleneoxyphenyl]-2,4-pyrimidinediamine [Compound I-172] | 277 nM |
| Cc1ccc(Nc2ncc(F)c(Nc3ccc(OCC#N)c(F)c3)n2)cc1S(N)(=O)=O [Compound I-11, N2-(3-Aminosulfonyl-4-methylphenyl)-5-fluoro-N4-(4-cyanomethyleneoxy-3-fluorophenyl)-2,4-pyrimidinediamine] | 39.3 nM |
| Cc1ccc(Nc2nc(Nc3ccc(S(N)(=O)=O)cc3)ncc2F)cc1OCC(=O)N1CCOCC1 [Compound I-209, N2-(4-Aminosulfonylphenyl)-5-fluoro-N4-[4-methyl-3-(2-morpholinocarbonylmethyleneoxy)phenyl]-2,4-pyrimidinediamine] | 4470 nM |
| C[Si](C)(C)C#Cc1cnc(Nc2cccc(S(N)(=O)=O)c2)nc1Nc1ccc(OCC#N)cc1 [Compound I-15, N2-(3-Aminosulfonylphenyl)-N4-(4-cyanomethyleneoxyphenyl)-5-trimethylsilylacetylene-2,4-pyrimidinediamine] | 1180 nM |
| CC(C)(Oc1ccc(Nc2nc(Nc3cccc(S(N)(=O)=O)c3)ncc2F)cc1)C(N)=O [Compound I-126, N4-[4-(1-Aminocarbonyl-1-methyl)ethoxy]phenyl-N2-(3-aminosulfonyl)phenyl-5-fluoro-2,4-pyrimidinediamine] | 610 nM |
| CCN(CC)CCNS(=O)(=O)c1ccc(Nc2ncc(F)c(Nc3ccc(OCc4cccnc4)cc3)n2)cc1 [Compound I-191, N2-[4-(2-N,N-Diethylaminoethyl)aminosulfonylphenyl)-5-fluoro-N4-[4-(3-pyridinyl)methyleneoxyphenyl]-2,4-pyrimidinediamine] | 292 nM |
| Cc1cc(COc2ccc(Nc3nc(Nc4ccc(C)c(S(N)(=O)=O)c4)ncc3F)cc2)n(Cc2ccccc2)n1 [Compound I-199, N2-(3-Aminosulfonyl-4-methylphenyl)-N4-[4-(1-benzyl-3-methyl-(1H)-pyrazol-5-yl)methyleneoxyphenyl]-5-fluoro-2,4-pyrimidinediamine] | 3030 nM |
| Cc1cc(Nc2nc(Nc3cccc(S(N)(=O)=O)c3)ncc2F)cc(C)c1OC(C)C(N)=O (racemic) [Compound I-123, Racemic N4-[4-(1-Aminocarbonyl)ethoxy-3,5-dimethyl]phenyl-N2-(3-aminosulfonyl)phenyl-5-fluoro-2,4-pyrimidinediamine] | 225 nM |
| Cc1ccc(Nc2ncc(F)c(Nc3ccc(OCc4ccncc4)cc3)n2)cc1S(N)(=O)=O [Compound I-194, N2-(3-Aminosulfonyl-4-methylphenyl)-5-fluoro-N4-[4-(4-pyridinyl)methyleneoxyphenyl]-2,4-pyrimidinediamine] | 99.3 nM |
| Cc1ccc(Nc2ncc(F)c(Nc3ccc(OCc4cccnc4)cc3)n2)cc1S(N)(=O)=O [Compound I-189, N2-(3-Aminosulfonyl-4-methylphenyl)-5-fluoro-N4-[4-(3-pyridinyl)methyleneoxyphenyl]-2,4-pyrimidinediamine] | 143 nM |
| Cc1cc(Nc2nc(Nc3ccc(S(N)(=O)=O)cc3)ncc2F)ccc1OCC(N)=O [Compound I-113, N4-(4-Aminocarbonylmethoxy-3-methyl)phenyl-N2-(4-aminosulfonyl)phenyl-5-fluoro-2,4-pyrimidinediamine] | 1690 nM |
| CNS(=O)(=O)c1cc(Nc2ncc(C)c(Nc3ccc(OCc4ccccn4)cc3)n2)ccc1C [Compound I-180, 5-Methyl-N2-[3-(N-methylaminosulfony)-4-methylphenyl]-N4-[4-(2-pyridinyl)methyleneoxyphenyl]-2,4-pyrimidinediamine] | 28.7 nM |
| NS(=O)(=O)c1ccc(Nc2ncc(F)c(Nc3ccc(OCc4ccccn4)cc3)n2)cc1 [Compound I-163, N2-(4-Aminosulfonylphenyl)-5-fluoro-N4-[4-(2-pyridinyl)methyleneoxyphenyl]-2,4-pyrimidinediamine] | 439 nM |
| Cc1cc(Nc2nc(Nc3cccc(S(N)(=O)=O)c3)ncc2F)ccc1OC(C)C(N)=O (racemic) [Compound I-120, Racemic N4-[4-(1-Aminocarbonyl)ethoxy-3-methyl]phenyl-N2-(3-aminosulfonyl)phenyl-5-fluoro-2,4-pyrimidinediamine] | 280 nM |

Same assay, conditions: primary human T-cells stimulated with IL-2, proliferation; read-out: IC50, Example 42

| Compound | IC50 |
| --- | --- |
| Cc1ccc(Nc2ncc(F)c(Nc3ccc4c(c3)NC(=O)CS4)n2)cc1S(N)(=O)=O [VII-45, N2-(3-Aminosulphonyl-4-methyl-phenyl)-5-fluoro-N4-(3-oxo-4H-benzo[1,4]thiazin-6-yl)-2,4-pyrimidinediamine] | 282 nM |
| N2-(3-Aminosulphonylphenyl)-5-fluoro-N4-[4-(3-pyridinylmethyl)benzo[1,4]oxazin-7-yl]-2,4-pyrimidinediamine [VII-55] | 599 nM |
| CS(=O)(=O)N1CCc2cc(Nc3nc(Nc4ccc(S(N)(=O)=O)cc4)ncc3F)ccc21 [VII-63] | 301 nM |
| C#CCOc1ccc(Nc2nc(Nc3ccc(C)c(S(=O)(=O)NC4CCN(C)CC4)c3)ncc2F)cc1 [VI-69, 5-Fluoro-N2-{[4-methyl-3-((1-methylpiperidin-4-yl)aminosulfonyl)]phenyl} N4-[4-(prop-2-ynyloxy)phenyl]-2,4-pyrimidinediamine] | 1340 nM |
| N#CCn1ccc2cc(Nc3nc(Nc4ccc(S(N)(=O)=O)cc4)ncc3F)ccc21 [IX-6, N2-(4-Aminosulfonylphenyl)-N4-(1-cyanomethyleneindol-5-yl)-5-fluoro-2,4-pyrimidinediamine] | 535 nM |
| COc1ccc(Nc2nc(Nc3cc(C)c4c(c3)S(=O)(=O)NC=N4)ncc2F)cc1Cl [VIII-3, N4-(3-Chloro-4-methoxyphenyl)-5-fluoro-N2-(5-methyl-2H-1,1-dioxo-1,2,4-benzothiadiazin-7-yl)-2,4-pyrimidinediamine] | 1840 nM |
| COCCCn1ncc2cc(Nc3nc(Nc4cccc(S(N)(=O)=O)c4)ncc3F)ccc21 [VII-22, N2-(3-Aminosulfonylphenyl)-5-fluoro-N4-[1-(3-methoxypropyl)indazolin-5-yl]-2,4-pyrimidinediamine] | 128 nM |
| Cc1ccc(Nc2ncc(F)c(Nc3ccc4c(ccn4CC#N)c3)n2)cc1S(N)(=O)=O [IX-8, N2-(3-Aminosulfonyl-4-methylphenyl)-N4-(1-cyanomethyleneindol-5-yl)-5-fluoro-2,4-pyrimidinediamine] | 124 nM |
| CS(=O)(=O)N1CCc2cc(Nc3nc(Nc4cccc(S(N)(=O)=O)c4)ncc3F)ccc21 [VII-60, N2-(3-Aminosulfonylphenyl)-5-fluoro-N4-[4-(1-methylsulfonyl)indolin-5-yl]-2,4-pyrimidinediamine] | 152 nM |
| COCCOc1ccc(Nc2nc(Nc3ccc(Cl)c(S(N)(=O)=O)c3)ncc2F)cc1 [VI-111, N2-(3-Aminosulfonyl-4-chlorophenyl)-5-fluoro-N4-[4-(2-methoxyethyleneoxy)phenyl]-2,4-pyrimdinediamine] | 1090 nM |
| NC1CCOc2ccc(Nc3nc(Nc4cccc(S(N)(=O)=O)c4)ncc3F)cc21 (centres unmarked) [VII-28, N2-(3-Aminosulfonylphenyl)-N4-(chroman-4-amine-6-yl)-5-fluoro-2,4-pyrimidinediamine] | 709 nM |
| CN1C(=O)CSc2ccc(Nc3nc(Nc4cccc(S(=O)(=O)N5CCCCC5)c4)ncc3F)cc21 [VII-50, 5-Fluoro-N4-(4-methyl-3-oxo-benz[1,4]thiazin-6-yl)-N2-(3-pipendinosulfonylphenyl)-2,4-pyrimidinediamine] | 856 nM |
| CCS(=O)(=O)N1CCc2cc(Nc3nc(Nc4ccc(S(N)(=O)=O)cc4)ncc3F)ccc2C1 [VII-13, N2-(4-aminosulfonyl)phenyl-N4-[(N-ethylsulfonyl)-1,2,3,4-tetrahydroisoquinolin-6-yl]-5-fluoro-2,4-pyrimidinediamine] | 380 nM |
| N2-[3-Aminosulfonyl-4-(4-methylpiperazine-1-yl)phenyl]-N4-(3-cyanomethylene-1H-indol-6-yl)-5-fluoro-2,4-pyrimidinediamine [IX-17] | 815 nM |
| CCS(=O)(=O)N1CCc2cc(Nc3nc(Nc4ccc(C)c(S(N)(=O)=O)c4)ncc3F)ccc2C1 [VII-15, N2-(3-aminosulfonyl-4-methyl)phenyl-N4-[(N-ethylsulfonyl)-1,2,3,4-tetrahydroisoquinolin-6-yl]-5-fluoro-2,4-pyrimidinediamine] | 121 nM |
| N4-(3-Chloro-4-cyanomethyleneoxyphenyl)-5-fluoro-N2-(5-methyl-2H-1,1-dioxide-1,2,4-benzothiadiazin-7-yl)-2,4-pyrimidinediamine [VIII-2] | 409 nM |
